This is an account of results in PubChem BioAssay (NCI).

What all share (experiment): NCI anticancer screen, dose series, 48 h
For assay [1], the system named is COLO 205 colon.
Assay [2] concerns DU-145 prostate.
Assay [3] deals with HCT-15 colon.
The test system of assay [4] is HOP-92 NSCLC.
The test system of assay [5] is HS 578T breast.
Assay [6] deals with K-562 leukemia.
For assay [7], the system named is MALME-3M melanoma.
Assay [8] has as its system MCF7 breast.
Assay [9] relates to MDA-N.
Assay [10] has as its system MOLT-4 leukemia.
The test system of assay [11] is OVCAR-3 ovarian.
For assay [12], the system named is OVCAR-4 ovarian.
Assay [13] has as its system RPMI-8226 leukemia.
The subject of assay [14] is SF-295 CNS.
The test system of assay [15] is SN12C renal.
Assay [16] relates to SNB-19 CNS.
Assay [17] has as its system SNB-75 CNS.
For assay [18], the system named is SR leukemia.
Assay [19] deals with TK-10 renal.
For assay [20], the system named is UO-31 renal.

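Cultured in 96-well plates, cells were exposed to test compound for 48 hours across five concentrations. At the TGI there is no net growth.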

On to `O=c1nc(N2CCNCC2)oc2cc(Cl)oc(=O)c12`, for which the TGI in assay [1] was 19 µM; in assay [2], 21.8 µM; in assay [3], 15 µM; in [4], 15.6 µM; in assay [5], 5.9 µM; in [6] it was greater than 27.4 µM. For the same molecule, the TGI stood at 14.5 µM in assay [7]; 17.8 µM in assay [8]; 9.06 µM in [9]; 7.37 µM in assay [10]; 15.2 µM in assay [11]; 21.6 µM in assay [12]. Also, the TGI is 5.62 µM in assay [13]; 20.9 µM in assay [14]; 33.1 µM in [15]; 36.7 µM in [16]; 17.4 µM in assay [17]; 4.41 µM in [18]. For the same molecule, the TGI in [19] worked out at 23.9 µM; in assay [20] it was 23 µM.

With `CCOC(=O)/C=C(\C(=O)OCC)n1ccc(=O)n(Cc2cn(CCCCOC(C)=O)nn2)c1=O`, the TGI is greater than 36.2 µM in [1]; 45.4 µM in assay [2]; 25.3 µM in assay [3]; 5.15 µM in assay [4]; 63.1 µM in assay [5]; greater than 34.1 µM in assay [6]. Moreover, the TGI in assay [7] worked out at 4.83 µM; in assay [8], 23.8 µM; in [9], 42.6 µM; in assay [10], 9.12 µM; in assay [11], 29.2 µM; in assay [12], 48.2 µM. Moreover, the TGI in assay [13] was greater than 36 µM; in assay [14], greater than 62.1 µM; in [15] it was 43 µM; in [16] it was greater than 55.6 µM; in assay [17], 41.8 µM; in [18], greater than 36 µM. Moreover, the TGI in assay [19] turned out to be 13.6 µM; in [20], 28.6 µM.

For the molecule `CC(=O)OCC1OC(n2c(C)cc(C)c(C#N)c2=S)C(OC(C)=O)C(OC(C)=O)C1OC(C)=O` (stereo not given), the TGI in assay [1], in assay [2], in [3], in [4], in assay [5] and in [6] was greater than 100 µM each time. The TGI in assay [7], in assay [8], in assay [9], in assay [10], in [11] and in [12] was greater than 100 µM each time. For the same molecule, the TGI in assay [13], in [14], in assay [15], in [16], in assay [17] and in assay [18] was greater than 100 µM each time. Further, the TGI in assay [19] and in [20] was greater than 100 µM each time.

Consider `COc1cccc2nc3c(C(=O)NCCN(C)C)cccc3cc12`, for which the TGI in [1] worked out at 2.55 µM; in assay [2], 14.4 µM; in assay [3], 11.2 µM; in assay [4] it was 11.2 µM; in assay [5], 7.5 µM; in [6], 13.9 µM. Further, the TGI was 4.4 µM in [7]; 8 µM in [8]; 8.42 µM in [9]; 21.2 µM in assay [10]; 12.3 µM in assay [11]; 4.8 µM in assay [12]. Further, the TGI in [13] was determined as 19.1 µM; in [14], 10.8 µM; in assay [15], 8.35 µM; in assay [16] it was 15.9 µM; in [17], 14.4 µM; in assay [18] it was 3.15 µM. Further, the values for the TGI in assay [19] and in assay [20] were 10.8 µM and 2.99 µM, respectively.

Consider `[N-]=[N+]=NCc1nc(N)c2c3c(sc2n1)CCCC3`, for which the TGI is greater than 39.3 µM in [1]; 13.2 µM in [2]; 11.4 µM in assay [3]; 1.77 µM in assay [4]; 14.9 µM in assay [5]; greater than 40.6 µM in [6]. Also, the TGI is 3.27 µM in [7]; 16.3 µM in assay [8]; 13.9 µM in assay [9]; greater than 100 µM in assay [10]; 11.8 µM in assay [11]; 1.42 µM in [12]. For the same molecule, the TGI in [13] is greater than 24.9 µM; in assay [14], 27.9 µM; in assay [15], 10.2 µM; in assay [16] it was 21.4 µM; in [17], 20.9 µM; in assay [18], greater than 100 µM. The TGI in assay [19] amounted to 26.5 µM; in assay [20], 0.227 µM.

For `COc1ccc(C[C@H]2COC(=O)[C@@H]2Cc2cccc(Br)c2)cc1OC`, the TGI is 28.7 µM in assay [1]; greater than 100 µM in assay [2]; greater than 100 µM in assay [3]; 48.3 µM in [4]; greater than 100 µM in assay [5]; greater than 100 µM in [6]. For the same molecule, the TGI in assay [7] amounted to 47.6 µM; in [8] it was 63.2 µM; in [9], 60.1 µM; in assay [10], 82.3 µM; in assay [11] it was 60.4 µM; in assay [12], 58 µM. Further, the TGI in [13] is 56.1 µM; in [14], greater than 100 µM; in [15] it was greater than 100 µM; in assay [16] it was greater than 100 µM; in assay [17] it was 55.5 µM; in [18] it was 32.8 µM. In addition, the TGI in assay [19] is 82 µM; in assay [20] it was 82.3 µM.

For `CC1OC(OC2C(OC(=O)[C@]34CCC(C)(C)C[C@H]3C3=CC[C@@H]5[C@@]6(C)CC[C@H](OC7OC(CO)C(O)C(O)C7OC7OC(CO)C(O)C(O)C7O)C(C)(C)[C@@H]6CC[C@@]5(C)[C@]3(C)CC4)OCC(O)C2O)C(O)C(OC2OCC(O)C(O)C2O)C1OC1OCC(O)C(OC2OCC(O)C(O)C2O)C1O` (stereo not given in full), the TGI in assay [1] is 8.16 µM; in assay [2], 38.3 µM; in [3], greater than 79.4 µM; in assay [4], 20.2 µM; in assay [5], 50.9 µM; in assay [6], 23.2 µM. Moreover, the TGI in assay [7] is 18.3 µM; in assay [8], 58.3 µM; in [9] it was 5.77 µM; in assay [10] it was 48.6 µM; in assay [11] it was greater than 100 µM; in assay [12] it was greater than 61.6 µM. Also, the TGI in [13] is 24 µM; in assay [14], 21.4 µM; in assay [15], 5.56 µM; in assay [16] it was 49.5 µM; in [17] it was 40.8 µM; in assay [18], 16.2 µM. The TGI in assay [19] was found to be 29.8 µM; in assay [20], 4.98 µM.

As for `COCOC1C=CCCCC2=CC(C)=C(CC1)O2` (stereo not given), the TGI in assay [1], in assay [2], in assay [3], in assay [4], in assay [5] and in [6] was greater than 100 µM each time. The TGI in [7], in assay [8], in assay [9], in assay [10], in assay [11] and in [12] was greater than 100 µM in each case. Further, the TGI in [13], in [14], in [15], in assay [16], in assay [17] and in [18] was greater than 100 µM throughout. For the same molecule, the TGI in assay [19] and in [20] was greater than 100 µM in each case.

Take `[N-]=[N+]=CC(=O)OC1Cc2ccccc2C1`: the TGI in [1] is greater than 100 µM; in assay [2], greater than 84.2 µM; in assay [3], greater than 100 µM; in assay [4] it was greater than 100 µM; in assay [5], greater than 100 µM; in [6] it was greater than 100 µM. In addition, the TGI in assay [7], in assay [8], in [9], in assay [10], in assay [11] and in assay [12] was greater than 100 µM in each case. Also, the TGI in [13], in assay [14], in assay [15], in assay [16], in assay [17] and in assay [18] was greater than 100 µM each time. The figures for the TGI in [19] and in assay [20] were greater than 100 µM and 35.8 µM, respectively.

`CC1(C)OC2C(O)C(CO)OC2(C(F)F)O1` (stereo not given): the TGI in assay [1], in [2], in assay [3], in [4], in assay [5] and in assay [6] was greater than 100 µM in each case. For the same molecule, the TGI in assay [7], in assay [8], in [9], in assay [10], in assay [11] and in assay [12] was greater than 100 µM throughout. Also, the TGI in [13], in [14], in assay [15], in [16], in assay [17] and in [18] was greater than 100 µM each time. Also, the TGI in [19] and in assay [20] was greater than 100 µM each time.
